The values below come from ChEMBL document CHEMBL1156808, “Synthesis and characterization of iodinated tetrahydroquinolines targeting the G protein-coupled estrogen receptor GPR30” (J Med Chem, 2010).

The test system of the series is Muscle tissue. Briefly: Biodistribution in muscle of iv dosed NCr nu/nu mouse xenografted with GPR30 overexpressing human Hec50 cells after 2 hrs. In kind it is ADME, organism-based. To be noted: in vivo. On the technique in general: A xenograft is tissue or cells of one species grown in another, often human tumour cells in immunodeficient mice.

`O=C(NCCc1ccc2c(c1)[C@@H]1C=CC[C@@H]1[C@H](c1cc3c(cc1Br)OCO3)N2)Nc1cccc([125I])c1` displayed a Drug uptake of 0.52 % ID/g.
